Measurements from PubChem BioAssay (NCI).
Several values for one entry are separate records, joined by “and”; a condition that tells them apart may be missing. Equal values may be shown once.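 The compound was tested at five concentrations on cells cultured in 96-well plates, with a 48-hour exposure period. The concentration for 50% growth inhibition is given as GI50. The concentration for full growth arrest is given as TGI.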

Columns and labels:
Experiment in all cases: NCI tumour cell line growth inhibition, 48 h
SK-MEL-28 melanoma = test system: SK-MEL-28 melanoma
MCF7 breast = test system: MCF7 breast
A498 renal = test system: A498 renal
IGROV1 ovarian = test system: IGROV1 ovarian
ACHN renal = test system: ACHN renal
DU-145 prostate = test system: DU-145 prostate
RPMI-8226 leukemia = test system: RPMI-8226 leukemia
OVCAR-5 ovarian = test system: OVCAR-5 ovarian
OVCAR-3 ovarian = test system: OVCAR-3 ovarian
NCI-H460 lung = test system: NCI-H460 lung

| Structure (SMILES) | GI50 (SK-MEL-28 melanoma) | TGI (SK-MEL-28 melanoma) | GI50 (MCF7 breast) | TGI (MCF7 breast) | GI50 (A498 renal) | TGI (A498 renal) | GI50 (IGROV1 ovarian) | TGI (IGROV1 ovarian) | GI50 (ACHN renal) | TGI (ACHN renal) | GI50 (DU-145 prostate) | TGI (DU-145 prostate) | GI50 (RPMI-8226 leukemia) | TGI (RPMI-8226 leukemia) | GI50 (OVCAR-5 ovarian) | TGI (OVCAR-5 ovarian) | GI50 (OVCAR-3 ovarian) | TGI (OVCAR-3 ovarian) | GI50 (NCI-H460 lung) | TGI (NCI-H460 lung) |
| --- | --- | --- | --- | --- | --- | --- | --- | --- | --- | --- | --- | --- | --- | --- | --- | --- | --- | --- | --- | --- |
| CCCCCCN1C(=O)CN=C1Nc1ccc2cc3ccc(NC4=NCC(=O)N4CCCCCC)cc3nc2c1 | 2.21 µM | 5.92 µM | 1.66 µM | 3.95 µM | 15.9 µM | 32.6 µM | 1.85 µM | 4.28 µM | 1.76 µM | 3.42 µM | 1.94 µM | 4.21 µM | 2.07 µM | 5.52 µM | 1.81 µM | 4.12 µM | 1.36 µM | 3.08 µM | 1.93 µM | 3.83 µM |
| O=C(NO)C(O)C(O)C(O)C(O)CO (stereo not given) | > 100 µM | > 100 µM | > 100 µM and 46.4 µM | > 100 µM | > 100 µM | > 100 µM | > 100 µM and 23.3 µM | > 100 µM and 80.2 µM | > 100 µM | > 100 µM | 40 µM and > 100 µM | > 100 µM | > 100 µM | > 100 µM | > 100 µM | > 100 µM | > 100 µM | > 100 µM | 54.6 µM and 37.9 µM | > 100 µM |
| CC(C)(C)c1ccc(S(=O)(=O)N[C@H]2CC[C@H]3[C@@H]4CCc5cc(O)ccc5[C@H]4CC[C@]23C)cc1 | 1.71 µM | 3.18 µM | 1.74 µM | 3.57 µM | 1.31 µM | 2.72 µM | 3.74 µM | 10.8 µM | 2.28 µM | 5.67 µM | 3.93 µM | 12.9 µM | 1.88 µM | 4.51 µM | 2.08 µM | 4.2 µM | 2.09 µM | 3.95 µM | 1.98 µM | 4.16 µM |
| CCOC(=O)Cc1csc(NC(=O)C(OC(=O)c2ccc(N)cc2)c2ccccc2)n1 (stereo not given) | 30.9 µM | 98 µM | 32.3 µM | > 100 µM | 72.1 µM | > 100 µM | 52.8 µM | > 100 µM | 44.9 µM | > 100 µM | 48.3 µM | > 100 µM | 63.9 µM | > 100 µM | > 100 µM | > 100 µM | 20.5 µM | 45.3 µM | 32.7 µM | > 100 µM |
| COc1cc(C(=O)N/N=C/c2cccc([N+](=O)[O-])c2)cc(OC)c1OC | 39.3 µM | > 100 µM | 4.49 µM | > 100 µM | 1.79 µM | 7.29 µM | 4.63 µM | > 100 µM | 26.7 µM | > 100 µM | 7.1 µM | > 100 µM | 5.39 µM | > 100 µM | 39.7 µM | > 100 µM | 2.39 µM | 6.64 µM | 3.23 µM | > 100 µM |
| CCCCCCCCCCCCNC(=O)[C@H]1CSC(c2ccc(OC)c(F)c2)N1 (stereo not given in full) | 0.342 µM | 1.11 µM | 1.55 µM | 3.31 µM | 1.78 µM | 3.28 µM | 0.325 µM | 0.902 µM | 1.63 µM | 3 µM | 0.888 µM | 2.46 µM | 2.06 µM | 4.62 µM | 1.4 µM | 2.72 µM | 1.45 µM | 3.26 µM | 1.74 µM | 3.63 µM |
| COc1cc(C2c3cc4c(cc3[C@@H](Nc3cccc(O)c3)C3COC(=O)[C@H]23)OCO4)cc(OC)c1O (stereo not given in full) | 0.746 µM | 20.7 µM | – | 28.4 µM | 0.86 µM | 5.9 µM | – | 30.4 µM | 0.356 µM | 3.56 µM | – | 1.75 µM | 0.45 µM | 9.31 µM | – | 22.7 µM | – | 12.6 µM | 0.145 µM | 3.55 µM |
